Among the data in US7220756B2, “N-sulfonylheterocyclopyrrolyl-alkylamine compounds as 5-hydroxytryptamine-6 ligands” (Wyeth, priority 2003, dated 2007) are Ki values, retold here.

T1 sequence (P50406 whole entry): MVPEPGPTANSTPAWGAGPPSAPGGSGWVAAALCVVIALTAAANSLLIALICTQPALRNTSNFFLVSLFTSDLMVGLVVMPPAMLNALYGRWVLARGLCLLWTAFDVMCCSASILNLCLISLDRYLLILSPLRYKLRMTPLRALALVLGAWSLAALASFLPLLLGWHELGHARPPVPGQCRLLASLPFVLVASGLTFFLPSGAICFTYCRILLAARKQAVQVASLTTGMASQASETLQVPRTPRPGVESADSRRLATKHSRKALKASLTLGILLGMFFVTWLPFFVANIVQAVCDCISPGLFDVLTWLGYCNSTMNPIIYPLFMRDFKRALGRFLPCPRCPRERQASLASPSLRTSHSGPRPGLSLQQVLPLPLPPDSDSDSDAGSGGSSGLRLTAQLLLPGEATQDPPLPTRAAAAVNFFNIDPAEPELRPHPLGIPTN

This assay addresses T1, human cloned 5-HT6 receptors (Homo sapiens, UniProt P50406).
T1 construct: expressed in transfected cells; host or cells: HeLa cells
Description: 5-HT6 binding affinity, [3H]-LSD displacement. The following applies: membranes of Hela cells expressing human cloned 5-HT6 receptors; [3H]-LSD 3.0 nM; 120 min, room temperature; read-out: 5-HT6 Binding Ki. On the procedure: The affinity of test compounds for the serotonin 5-HT6 receptor is evaluated in the following manner. Cultured Hela cells expressing human cloned 5-HT6 receptors are harvested and centrifuged at low speed (1,000×g) for 10.0 min to remove the culture media. The harvested cells are suspended in half volume of fresh physiological phosphate buffered saline solution and recentrifuged at the same speed. This operation is repeated. The collected cells are then homogenized in ten volumes of 50 mM Tris.HCl (pH 7.4) and 0.5 mM EDTA. The homogenate is centrifuged at 40,000×g for 30.0 min and the precipitate is collected. The obtained pellet is resuspended in 10 volumes of Tris.HCl buffer and recentrifuged at the same speed. The final pellet is suspended in a small volume of Tris.HCl buffer and the tissue protein content is determined in aliquots of 10–25 μl volumes. Bovine Serum Albumin is used as the standard in the protein determination according to the method described in Lowry et al., J. Biol. Chem., 193:265 (1951). The volume of the suspended cell membranes is adjusted to give a tissue protein concentration of 1.0 mg/ml of suspension. The prepared membrane suspension (10 times concentrated) is aliquoted in 1.0 ml volumes and stored at −70° C. until used in subsequent binding experiments.
The reaction is allowed to proceed in the dark for 120 min at room temperature, at which time, the bound ligand-receptor complex is filtered off on a 96 well unifilter with a Packard Filtermate® 196 Harvester. The bound complex caught on the filter disk is allowed to air dry and the radioactivity is measured in a Packard TopCount® equipped with six photomultiplier detectors, after the addition of 40.0 μl Microscint®−20 scintillant to each shallow well. The unifilter plate is heat-sealed and counted in a PackardTopCount® with a tritium efficiency of 31.0%.
Binding in the presence of varying concentrations of test compound is expressed as a percentage of specific binding in the absence of test compound. The results are plotted as log % bound versus log concentration of test compound. […] A linear regression line of data points is plotted, from which the IC50 value is determined and the Ki value is determined based upon the following equation: Ki=IC50/(1+L/KD) where L is the concentration of the radioactive ligand used and KD is the dissociation constant of the ligand for the receptor, both expressed in nM.
In the case of “N,N-dimethyl-2-{[6-(5-bromothien-2-yl)sulfonyl]-6H-thieno[2,3-b]pyrrol-4-ylethyl}-amine [Example 55]”, the Ki turned out to be 1.1 ± 0.1 nM.

With “N,N-dimethyl-2-{[6-(5-chlorothien-2-yl)sulfonyl]-6H-thieno[2,3-b]pyrrol-4-yl]-ethyl}-amine [Example 41]”, the Ki was 1.3 ± 0.1 nM.

Turning to “N,N-dimethyl-2-{[6-(6-chloroimidazo[2,1-b][1,3]thiazol-5-yl)sulfonyl]-6H-thieno[2,3-b]pyrrol-4-yl}ethylamine [Example 42]”, the inhibitory constant (Ki) was 0.9 ± 0.1 nM.

Consider “N,N-dimethyl-2-{[6-(imidazo[2,1-b][1,3]thiazol-5-yl)sulfonyl]-6H-thieno[2,3-b]pyrrol-4-yl}-ethylamine [Example 49]”, for which the Ki worked out at 1.1 ± 0.1 nM.
